Entries after “also recorded” stand apart in the source; their conditions may differ.
Columns and labels:
Type in all cases: in vivo, mouse
osteocytes [1] = assay: Quantification of C'Dot Subcellular Localization within osteocyte cell bodies
Description: Quantification of C'Dot Subcellular Localization: Individual frames from z-stacks taken after a 45 minute C'Dot incubation were analyzed for subcellular localization within osteocytes under different study conditions. Filtering with a gaussian blur was performed prior to thresholding of signal and particle analysis to identify cellular regions of interest (ROIs). These ROIs were overlayed onto the original image. Cells with distinct subcellular localization of C'Dots were counted as a percentage of total cells. Other cells had saturated or non-distinct signal. Cells with C'Dot signal in with a rim phenotype were also quantified by-eye. Two blinded individuals quantified the images and averaged consensus data was used in the final results.
METHODS: Silica core poly(ethylene glycol) shell (core-shell) nanoparticles covalently encapsulating Cy5 dye (PE G-C'Dots) were created using a modified Stober condensation in water. RGD-C'Dots were created by surface functionalizing C'Dot surface with amino acid motifs that bind to the extracellular RGD domain of integrin proteins. Skeletally mature C57BL/6J mice age 16-18 weeks were used for these studies (n=4-5/group/sex). C'Dot Injections: Under inhaled isoflurane anesthesia, PEG- or RGD-C'Dots were injected subcutaneously above the third metatarsal (MT3) in the mouse hind paw at a concentration of 10 μM (FIG. 9). C'Dots were incubated for 45 minutes with mice allowed normal cage activity. Pre-incubation with Dyngo-4a (Abcam) or Methyl-β-cyclodextrin (Sigma Aldrich) for 30 minutes prior to C'Dot injection was used to inhibit dynamin activity or cholesterol lipid raft formation in treated groups. Imaging: After incubation, the MT3 was surgically isolated and stabilized using a metal 3-pin system in re-anesthetized mice'. […] Image Quantification: Mean intensity and cell count of the C'Dot tagged osteocytes were quantified in ImageJ (NIH) using 3D segmentation and were normalized to background intensity. Subcellular localization of C'Dots was quantified by eye from a single frame of the first z-stack of each clearance experiment. […]

osteocytes [2] = assay: Endocytosis Inhibition Experiment: Dyngo4a or MβCD pre-incubation before C'Dot injection and clearance imaging; settings: for changes in uptake and retention of C'Dots into osteocytes (FIG. 17): RGD and PEG C'Dots; for number of cells visualized and quantified at the initial imaging timepoint compared to untreated control: RGD-C'Dots, 30 minute preincubation of drug
Description: C'Dot Injection and Incubation: Mice were anesthetized with 2-3% isoflurane mixed with medical grade air in an induction chamber for 3 minutes prior to injection. During injection, mice were kept under 2% isoflurane with a nose cone. A 10 μL subcutaneous injection of 10 μM C'Dots was then administered over the third metatarsal (MT3). C'Dots were incubated for 1 hour prior to MT3 isolation (n=4-5/group/sex). Mice were allowed normal cage activity during their incubation time, and were re-anesthetized immediately before MT3 isolation.
C'Dot Imaging: C'Dot fluorescent signal inside the MT3 was visualized with multiphoton microscopy (MPM) (Bergamo II, Thorlabs) as previously described (Matthews 2023). Briefly, a 20× immersion objective (XLUMPLFLN, Olympus), 1090 nm wavelength excitation, and a >647 nm longpass filter acquisition were used for Cy5 encapsulated C'Dots. Images were captured at 1024×1024 pixel density and 0.588 μm pixel resolution. For the C'Dot clearance study, a 35 μm z-stack was taken for each mouse, starting 20 μm beneath the bone surface, with 0.3 μm steps between each slice and 7 frame averaging per slice. These z-stacks were taken every 15 minutes for almost 3 hours after the initial 1 hour incubation.
C'Dot Image Analysis: Z-stacks were analyzed in ImageJ (NIH) as previously described (Matthews 2023). Briefly, a macro was created to interpolate the regions of interest across the z-stack as well as filter the images. Then 3D segmentation was run, creating objects for all cell volumes over a threshold intensity. The lower bound for threshold intensity was established as the mean plus 3× standard deviation of background fluorescence. Segmented objects were then filtered by surface area (>1000 pixels) to ensure only full cell volumes were counted, and mean intensity for each object was quantified using the 3D manager tool. Intensities were normalized to background within each z-stack.
Endocytosis Inhibition Experiment: The small molecule Dyngo4a was used as a potent Dynasore analogue to evaluate the impact of dynamin-mediated endocytosis inhibition. A pre-incubation of Dyngo4a (10 μL, 30 μM) was subcutaneously injected above the MT3 30 minutes prior to C'Dot injection and subsequent imaging. Dyngo4a was diluted from a stock solution in DMSO to the working concentration in 1×PBS. Dyngo4a was kept at […] and was defrosted prior to use. Methyl-β-cyclodextrin (MβCD) was used as a depletor of plasma membrane cholesterol to evaluate the impact of cholesterol-mediated, lipid raft-based endocytosis inhibition. A pre-incubation of MβCD (10 μL, 10 mM) was subcutaneously injected 30 minutes before C'Dot injection. MβCD was diluted from a powder in 1×PBS. MβCD was kept at 4 C and warmed to room temperature prior to use. Both drugs were tested across all groups: male and female, PEG- and RGD-C'Dots (n=4-5/group/sex).
Statistical Analyses: Clearance study analysis was done using a student's t-test, 2-way ANOVAs, and regression analyses, including non-linear (One Phase Decay) and linear. Analyses were performed in GraphPad Prism version 9.0 for Mac OS X (GraphPad Software).
METHODS: Silica core poly(ethylene glycol) shell (core-shell) nanoparticles covalently encapsulating Cy5 dye (PE G-C'Dots) were created using a modified Stober condensation in water. RGD-C'Dots were created by surface functionalizing C'Dot surface with amino acid motifs that bind to the extracellular RGD domain of integrin proteins. Skeletally mature C57BL/6J mice age 16-18 weeks were used for these studies (n=4-5/group/sex). C'Dot Injections: Under inhaled isoflurane anesthesia, PEG- or RGD-C'Dots were injected subcutaneously above the third metatarsal (MT3) in the mouse hind paw at a concentration of 10 μM (FIG. 9). C'Dots were incubated for 45 minutes with mice allowed normal cage activity. […]

osteocytes [3] = assay: Combined acute and extended C'Dot clearance from osteocytes in non-drugged and drugged groups; settings: for impact on combined acute and extended C'Dot clearance (FIG. 18): male mice; for impact on combined acute and extended C'Dot clearance (FIG. 19): male mice (so in the source)
Description: Osteocyte C'Dot Endocytosis and Metabolism: C'Dots and their rapid uptake and clearance from osteocytes was used to study endocytosis in living bone tissue. In endocytosis experiments, different drugs are preincubated in the foot (injected in the same manner) prior to C'Dot application and incubation. Drugs to target different types of endocytic pathways, including non-receptor mediated endocytosis and clathrin mediated endocytosis, were used. The same clearance imaging was performed to see how the drugs impact the cellular uptake and retention of the nanoparticles over time.
Additionally, this experiment was performed again with a short, 5 minute incubation and more rapid imaging to see what the acute impacts of the drugs were on C'Dot uptake.

| Compound | change in percentage of cells with subcellular localization after drug pre-incubation (osteocytes [1]; any group) | changes in uptake and retention of C'Dots into osteocytes (FIG. 17) (osteocytes [2]) | RGD C'Dot signal compared to untreated control (osteocytes [2]; female group, MβCD pre-incubation) | PEG C'Dot signal compared to untreated control (osteocytes [2]; male and female PEG C'Dot groups, MβCD pre-incubation) | RGD C'Dot signal compared to untreated control (osteocytes [2]; male group, MβCD pre-incubation) | RGD C'Dot signal compared to untreated control (osteocytes [2]; male group, MβCD pre-incubation, listed as M (3CD)) | impact on combined acute and extended C'Dot clearance (FIG. 18) (osteocytes [3]) | impact on combined acute and extended C'Dot clearance (FIG. 19) (osteocytes [3]) | change in cells with discrete localization of RGD C'Dot signal after drug pre-incubation (osteocytes [1]; females, pre-incubation with drug) | cells with discrete localization of RGD C'Dot signal after drug pre-incubation (osteocytes [1]; males, pre-incubation with drug) [%] | change of PEG-C'Dot clearance from untreated control (osteocytes [2]; PEG-C'Dots, males and females, Dyngo4a preincubation) | RGD-C'Dot signal at the end of the imaging experiment (osteocytes [2]; female mice, Dyngo4a preincubation) | number of cells visualized and quantified at the initial imaging timepoint compared to untreated control (osteocytes [2]; female mice) | RGD C'Dot signal intensity and retention compared to untreated control (osteocytes [2]; male mice, Dyngo4a pre-incubation) | RGD-C'Dot signal at the end of the imaging experiment (osteocytes [2]; male mice, Dyngo4a preincubation) | number of cells visualized and quantified at the initial imaging timepoint compared to untreated control (osteocytes [2]; male mice) |
| --- | --- | --- | --- | --- | --- | --- | --- | --- | --- | --- | --- | --- | --- | --- | --- | --- |
| Methyl-β-cyclodextrin [MβCD] | did not significantly change | significant changes in uptake and retention | significant increase | only males retained a significant increase in signal | significant increase | no effect | has an impact on both C'Dot types | has an impact on both C'Dot types | – | – | – | – | – | – | – | – |
| O=C(N/N=C/c1cc(O)c(O)cc1O)c1cc2ccccc2cc1O [Dyngo4a] | – | significant changes in uptake and retention | – | – | – | – | has an impact only on the RGD C'Dots | does not have an impact on either C'Dot type | non-significant decrease; also recorded: no statistically significant impact | 25 | neither males or females having significant change | near zero by the end of the experiment | no statistically significant impact | significantly increased | maintained until the end of the imaging experiment | significantly higher |

— patent US20260224756A1, “Methods Of Cellular Imaging And Inorganic Nanoimaging Agents For Same” (Cornell University, priority 2023, published 2026)
